Source: patent US8119805B2, “Substituted disulfonamide compounds” (Gruenenthal GmbH, priority 2008, dated 2012)
Where a name gives a salt, the structure may show the parent alone.

Experiments:
[1] = target: T1, B1R receptor of the rat (rB1R) (Rattus norvegicus, UniProt P97583); test: Functional investigation on the bradykinin 1 receptor (B1R), FLIPR Ca2+ assay, rB1R cells; type: cell-based; conditions: test substance 10 μM; CHO K1 cells transfected with rat B1R gene; Fluo-4 Ca2+ signal; agonist Des-Arg9-bradykinin at EC80; % of maximum achievable inhibition; read-out: B1R antagonism, rat [10 μM] % inhibition
T1 construct: expressed in transfected cells; host or cells: CHO K1 cells
T1 sequence (P97583 1-337): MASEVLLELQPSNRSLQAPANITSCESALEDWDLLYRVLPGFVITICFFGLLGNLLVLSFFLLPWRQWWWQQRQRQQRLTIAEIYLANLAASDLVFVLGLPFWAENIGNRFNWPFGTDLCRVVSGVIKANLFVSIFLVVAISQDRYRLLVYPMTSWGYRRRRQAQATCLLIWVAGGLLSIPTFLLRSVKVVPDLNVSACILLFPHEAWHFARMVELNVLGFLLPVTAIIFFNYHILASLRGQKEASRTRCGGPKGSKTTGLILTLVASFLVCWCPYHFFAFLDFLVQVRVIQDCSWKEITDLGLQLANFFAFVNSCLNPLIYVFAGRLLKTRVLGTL
Method: (§1) The agonistic or antagonistic action of substances on the bradykinin 1 receptor (B1R) of the human and rat species can be quantified with ectopically expressing cell lines (CHO K1 cells) and with the aid of a Ca^2+-sensitive dyestuff (Fluo-4) in a fluorescent imaging plate reader (FLIPR). The value in % activation is based on the Ca^2+ signal after addition of Lys-Des-[…]-bradykinin (0.5 nM) or Des-[…]-bradykinin (100 nM). Antagonists lead to a suppression of the Ca^2+inflow after addition of the agonist. % inhibition compared with the maximum achievable inhibition is stated. The agonistic or antagonistic action of substances on the bradykinin 1 receptor (B1R) of the human and rat species can be determined with the following assay. In accordance with this assay, the Ca^2+ inflow through the channel is quantified with the aid of a Ca^2+-sensitive dyestuff (type Fluo-4, Molecular Probes Europe BV, Leiden, Holland) in a fluorescent imaging plate reader (FLIPR, Molecular Devices, Sunnyvale, USA). Chinese hamster ovary cells (CHO K1 cells) transfected stably with the human B1R gene (hB1R cells) or the B1R gene of the rat (rB1R cells) are used. For functional studies, these cells are plated out on black 96-well plates with a clear base (BD Biosciences, Heidelberg, Germany or Greiner, Frickenhausen, Germany) in a density of 20,000-35,000 cells/well. The cells are left overnight at 37° C. and 5% CO2 in culture medium (hB1R cells: Nutrient Mixture Ham's F12, Gibco Invitrogen GmbH, Karlsruhe, Germany or DMEM, Sigma-Aldrich, Taufkirchen, Germany; rB1R cells: D-MEM/F12, Gibco Invitrogen GmbH, Karlsruhe, Germany) with 10 vol. % FBS (foetal bovine serum, Gibco Invitrogen GmbH, Karlsruhe, Germany or PAN Biotech GmbH, Aidenbach, Germany). On the following day, the cells are loaded for 60 min at 37° C. with 2.13 μM Fluo-4 (Molecular Probes Europe BV, Leiden Holland) in HBSS buffer (Hank's buffered saline solution, Gibco Invitrogen GmbH, Karlsruhe, Germany) with 2.5 mM probenecid (Sigma-Aldrich, Taufkirchen, Germany) and 10 mM HEPES (Sigma-Aldrich, Taufkirchen, Germany). The plates are then washed 2× with HBSS buffer, and HBSS buffer which additionally contains 0.1% BSA (bovine serum albumin; Sigma-Aldrich, Taufkirchen, Germany), 5.6 mM glucose and 0.05% gelatine (Merck KGaA, Darmstadt, Germany) is added. After a further incubation of 20 minutes at room temperature, the plates are inserted into the FLIPR for the Ca^2+ measurement. Alternatively, the plates are washed with buffer A (15 mM HEPES, 80 mM NaCl, 5 mM KCl, 1.2 mM CaCl2, 0.7 mM MgSO4, 2 g/l glucose, 2.5 mM probenecid), buffer A is added and the plates are loaded with 2.5 μM Fluo-4 and 0.025% Pluronic F127 (Sigma-Aldrich, Taufkirchen, Germany). Thereafter, the cells are washed 2× with buffer A and incubated for 30 minutes at room temperature with buffer A, which additionally contains 0.05% BSA and 0.05% gelatine, and thereafter inserted into the FLIPR for the Ca^2+ measurement. The Ca^2+-dependent fluorescence is measured here before and after addition of substances (λex=488 nm, λem=540 nm). Quantification is by measurement of the highest fluorescence intensity (FC, fluorescence counts) over time. The FLIPR protocol consists of 2 additions of substance. Test substances (10 μM) are first pipetted on to the cells and the Ca^2+ inflow is compared with the control (hB1R: Lys-Des-[…]-bradykinin>=50 nM; rB1R: Des-[…]-bradykinin 10 μM). This gives the result in % activation based on the Ca^2+ signal after addition of Lys-Des-[…]-bradykinin (>=50 nM) or Des-[…]-bradykinin (10 μM). After incubation for 10-20 minutes, Lys-Des-[…]-bradykinin (hB1R) or Des-[…]-bradykinin (rB1R) at the EC80 concentration is applied and the inflow of Ca^2+ is likewise determined. Antagonists lead to a suppression of the Ca^2+ inflow. The percent inhibition compared to the maximum achievable inhibition is calculated. In order to determine the IC50 value, the substances are added in various concentrations. […]

[2] = target: T2, human B1R receptor (hB1R) (Homo sapiens, UniProt P46663); test: Functional investigation on the bradykinin 1 receptor (B1R), FLIPR Ca2+ assay, hB1R cells; type: cell-based; conditions: test substance 10 μM; CHO K1 cells transfected with human B1R gene; Fluo-4 Ca2+ signal; agonist Lys-Des-Arg9-bradykinin at EC80; % of maximum achievable inhibition; read-out: B1R antagonism, human [10 μM] % inhibition
T2 construct: expressed in transfected cells; host or cells: CHO K1 cells
T2 sequence (P46663 1-353): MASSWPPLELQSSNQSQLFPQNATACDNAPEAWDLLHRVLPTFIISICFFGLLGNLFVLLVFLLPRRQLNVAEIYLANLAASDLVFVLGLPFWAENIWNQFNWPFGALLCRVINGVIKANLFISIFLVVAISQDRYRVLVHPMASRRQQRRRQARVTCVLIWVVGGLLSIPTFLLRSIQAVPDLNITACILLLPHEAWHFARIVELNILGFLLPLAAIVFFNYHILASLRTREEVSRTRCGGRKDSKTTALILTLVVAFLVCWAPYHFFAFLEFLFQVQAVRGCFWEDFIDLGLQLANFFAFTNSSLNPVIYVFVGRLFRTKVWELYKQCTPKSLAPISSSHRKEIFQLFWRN
Method: as §1

| inhibition at 10 µM [1] [%] | inhibition at 10 µM [2] [%] | Compound |
| --- | --- | --- |
| 46 | 59 | COc1cc(C)c(S(=O)(=O)N2CCCC2CCCCS(=O)(=O)N2CCC(CCN3CCCC3)CC2)c(C)c1C (centres unmarked) [Example 8, 1-(4-(1-(4-Methoxy-2,3,6-trimethylphenylsulfonyl)pyrrolidin-2-yl)butylsulfonyl)-4-(2-(pyrrolidin-1-yl)ethyl)piperidine] |
| 40 | 53 | CN1CCC(N2CCN(S(=O)(=O)CC3CCCCN3S(=O)(=O)c3cccc(C(F)(F)F)c3)CC2)CC1 (centres unmarked) [Example 37, 1-(1-Methylpiperidin-4-yl)-4-((1-(3-(trifluoromethyl)phenylsulfonyl)piperidin-2-yl)methylsulfonyl)piperazine] |
| 75 | 103 | Cc1cc(C)c(S(=O)(=O)N2CCC(CCS(=O)(=O)N3CCN(c4ccncc4)CC3)C2)c(C)c1 (centres unmarked) [Example 20, 1-(2-(1-(Mesitylsulfonyl)pyrrolidin-3-yl)ethylsulfonyl)-4-(pyridin-4-yl)piperazine hydrochloride] |
|  | 53 | Cc1cc(C)c(S(=O)(=O)N2CCC(CCCS(=O)(=O)N3CCN(C4CCN(C)CC4)CC3)CC2)c(C)c1 [Example 13, 1-(3-(1-(Mesitylsulfonyl)piperidin-4-yl)propylsulfonyl)-4-(1-methylpiperidin-4-yl)piperazine] |
|  | 58 | O=S(=O)(CCC1CCN(S(=O)(=O)c2c(Cl)cc(C(F)(F)F)cc2Cl)CC1)N1CCC(CCN2CCCC2)CC1 [Example 14, 1-(2,6-Dichloro-4-(trifluoromethyl)phenylsulfonyl)-4-(2-(4-(2-(pyrrolidin-1-yl)ethyl)piperidin-1-ylsulfonyl)ethyl)piperidine] |
|  | 52 | Cc1cc(C)c(S(=O)(=O)N2CCC(CCCS(=O)(=O)N3CCC(CCN4CCCC4)CC3)CC2)c(C)c1 [Example 12, 1-(Mesitylsulfonyl)-4-(3-(4-(2-(pyrrolidin-1-yl)ethyl)piperidin-1-ylsulfonyl)propyl)piperidine] |
|  | 83 | Cc1cc(C)c(S(=O)(=O)N2CCC(CCS(=O)(=O)N3CCC(CCN4CCCC4)CC3)C2)c(C)c1 (centres unmarked) [Example 1, 1-(2-(1-(Mesitylsulfonyl)pyrrolidin-3-yl)ethylsulfonyl)-4-(2-(pyrrolidin-1-yl)ethyl)piperidine] |
|  | 55 | O=S(=O)(CCC1CCN(S(=O)(=O)c2csc3ccccc23)C1)N1CCC(CCN2CCCC2)CC1 (centres unmarked) [Example 3, 1-(2-(1-(Benzo[b]thiophen-3-ylsulfonyl)pyrrolidin-3-yl)ethylsulfonyl)-4-(2-(pyrrolidin-1-yl)ethyl)piperidine] |

The next lines start with the compound.

| Compound | inhibition at 10 µM [1] [%] | inhibition at 10 µM [2] [%] |
| --- | --- | --- |
| COc1cc(C)c(S(=O)(=O)N2CCC[C@H]2CCCS(=O)(=O)N2CCC3(CCC(Oc4ccncc4)CC3)CC2)c(C)c1 [Example 66, 3-(3-((S)-1-(4-Methoxy-2,6-dimethylphenylsulfonyl)pyrrolidin-2-yl)propylsulfonyl)-9-(pyridin-4-yloxy)-3-azaspiro[5.5]undecane hydrochloride] | 102 | 100 |
| COc1cc(C)c(S(=O)(=O)N2CCCCC2CCCS(=O)(=O)N2CCC3(CC2)CCC(OCCN2CCCC2)(c2cccnc2)CC3)c(C)c1 (centres unmarked) [Example 87, 3-(3-(1-(4-Methoxy-2,6-dimethylphenylsulfonyl)piperidin-2-yl)propylsulfonyl)-9-(pyridin-3-yl)-9-(2-(pyrrolidin-1-yl)ethoxy)-3-azaspiro[5.5]undecane] | 102 | 100 |
| O=S(=O)(CCC[C@@H]1CCCN1S(=O)(=O)c1cccc(Cl)c1Cl)N1CCC(Oc2ccncc2)CC1 [Example 52, (S)-4-(1-(3-(1-(2,3-Dichlorophenylsulfonyl)pyrrolidin-2-yl)propylsulfonyl)piperidin-4-yloxy)pyridine] | 87 | 71 |
| O=S(=O)(CCC[C@@H]1CCCN1S(=O)(=O)c1ccccc1C(F)(F)F)N1CCC2(CCN(c3ccncc3)CC2)CC1 [Example 68, 3-(Pyridin-4-yl)-9-(3-((S)-1-(2-(trifluoromethyl)phenylsulfonyl)pyrrolidin-2-yl)propylsulfonyl)-3,9-diazaspiro[5.5]undecane hydrochloride] | 96 | 100 |
| COc1cc(C)c(S(=O)(=O)N2CCCC(CCCS(=O)(=O)N3CCC(CCN4CCCC4)CC3)C2)c(C)c1C (centres unmarked) [Example 10, 1-(4-Methoxy-2,3,6-trimethylphenylsulfonyl)-3-(3-(4-(2-(pyrrolidin-1-yl)ethyl)piperidin-1-ylsulfonyl)propyl)piperidine hydrochloride] | 10 | 63 |
| CN1CCC(N2CCN(S(=O)(=O)CCC[C@@H]3CCCN3S(=O)(=O)CC(c3ccccc3)c3ccccc3)CC2)CC1 [Example 33, (S)-1-(3-(1-(2,2-Diphenylethylsulfonyl)pyrrolidin-2-yl)propylsulfonyl)-4-(1-methylpiperidin-4-yl)piperazine] | 36 | 98 |
| O=S(=O)(CCC[C@@H]1CCCN1S(=O)(=O)c1ccccc1C(F)(F)F)N1[C@@H]2CC[C@H]1C[C@H](Oc1ccncc1)C2 [Example 56, (1R,3R,5S)-3-(Pyridin-4-yloxy)-8-(3-((S)-1-(2-(trifluoromethyl)phenylsulfonyl)pyrrolidin-2-yl)propylsulfonyl)-8-azabicyclo[3.2.1]octane] | 99 | 95 |
| COc1cc(C)c(S(=O)(=O)N2CCC[C@H]2CCCS(=O)(=O)N2CCN(c3nccs3)CC2)c(C)c1C [Example 40, (S)-2-(4-(3-(1-(4-Methoxy-2,3,6-trimethylphenylsulfonyl)pyrrolidin-2-yl)propylsulfonyl)piperazin-1-yl)thiazole] |  | 50 |
